# From patent US20260201335A1, “A Method to Generate Cardiac Pericytes from Human Induced Pluripotent Stem Cells” (The Board of Trustees of the Leland Stanford Junior …, priority 2022, published 2026)
# What was measured:
# [1] = test system: iPSC-CPs; assay: PrestoBlue viability assay, sunitinib dose-response; type: cell-based, human; conditions: 72 hr, sunitinib 0 μM-100 μM
# Excerpt: (§1) FIG. 1. Phenotypic characterization and functional assessment of stepwise differentiated iPSC-cardiac pericytes. A, A schematic showing stage-specific inhibition and activation of morphogens to generate pure epicardial cells (EPI) from human induced pluripotent stem cells (iPSCs). […] MPS, mid-primitive streak; LPM, lateral plate mesoderm; SM, splanchnic mesoderm; ST, septum transversum; PEO, pre-epicardial organ. B, Immunofluorescent images (ZO1 and WT1), flow cytometry (WT1) graphs (n=10 iPSC lines, 5M/5F), and quantitative data showing EPI induction efficiency by stepwise (i) and GiWiGi (ii) protocols. C, Quantitative reverse transcription PCR (RT-qPCR) results showing expression levels of canonical (WT1, TBX18, and TCF21) and mature (ALDH1A2, UPK3B, and ANXA8) markers of EPIs derived by both protocols. D, Single-cell ATAC sequencing (scATAC-seq) of EPIs generated by both GiWiGi (ii) and stepwise (iii) protocols are projected to that of human fetal heart cell clusters (i). […] H, Bright field and immunofluorescent images of iPSC-derived SMCs, cardiac fibroblasts (CFs), and endothelial cells (ECs).
# [2] = test system: CPs; conditions: mice, cited from earlier work
# [3] = test system: primary and iPSC-CPs; assay: Thalidomide rescue of sunitinib-induced CP death (cell morphology); type: cell-based, human; conditions: sunitinib (5 μM)/thalidomide (1 μM), 72 hr
# Excerpt: as §1
# [4] = test system: iPSC-CPs; assay: Gene clustering / gene ontology analysis of treated iPSC-CPs (RNA-seq); type: cell-based, human; conditions: sunitinib (5 μM)/thalidomide (1 μM), 72 hr
# [5] = test system: iPSC-CPs; assay: Calcium imaging using Fura-2 AM after carbachol; type: cell-based, human
# Excerpt: (§2) FIG. 1. […] Key changes of hallmarks in each cluster are highlighted. […] GraphPad Prism 9 was used for statistical analysis. All data are presented as mean±sem.
# (§3) Next, we examined the relative cell contraction capacities of iPSC-CPs versus iPSC-SMCs by measuring intracellular calcium transients after carbachol treatment. […] We also tested the pro-angiogenic potentials of iPSC-CPs.
# [6] = test system: iPSC-SMCs; assay: Calcium imaging using Fura-2 AM after carbachol; type: cell-based, human; conditions: iPSC-SMCs after carbachol treatment
# Excerpt: as §2, §3
# [7] = test system: stepwise EPIs; assay: Differentiation of stepwise EPIs to iPSC-CPs with exogenous PDGF-BB (flow cytometry); type: cell-based, human; conditions: exogenous PDGF-BB in pericyte medium
# Excerpt: as §2
# Next, we differentiated stepwise EPIs in a commercial pericyte medium and observed that it took at least 12 days to generate iPSC-CPs (FIG. 1E) with low efficiency (FIG. 1F).
# Day 11. EPI to Cardiac pericyte, CP. Aspects of the disclosure relate to producing cardiac pericytes through contacting a population of epicardial cells with a cardiac pericyte composition. As described herein, cardiac pericyte induction compositions may vary and generally comprise effective amounts of a PDGF pathway activator in a commercial pericyte medium (ScienCell cat #1201). An exemplary CP induction medium comprises 10 ng/ml PDGF-BB in pericyte medium.
molecule,measurement,setting,value
CCN(CC)CCNC(=O)c1c(C)[nH]c(/C=C2\C(=O)Nc3ccc(F)cc32)c1C [sunitinib],"sunitinib-induced cell death, sensitivity of iPSC-CPs versus iPSC-CMs",[1],iPSC-CPs were more sensitive than iPSC-CMs
same,"coronary microvascular abnormalities and cardiac dysfunction, primary target cells",[2]; previous study,CPs were the primary targets
O=C1CCC(N2C(=O)c3ccccc3C2=O)C(=O)N1 (stereo not drawn) [thalidomide],rescue of CP death,[3],profoundly rescued CP death
same,"genes associated with cell cycle, pericyte function, and DNA damage",[4],"restored genes associated with cell cycle, pericyte function, and DNA damage to a baseline level"
same,rescue from sunitinib-induced CP loss and cardiac dysfunction,[2],can rescue mice from sunitinib-induced CP loss and cardiac dysfunction
C[N+](C)(C)CCOC(N)=O [carbachol],"calcium amplitude, iPSC-CPs versus iPSC-SMCs",[5]; after carbachol treatment,much smaller calcium amplitude
same,contraction pattern (intracellular calcium transients),[5]; iPSC-CPs after carbachol treatment,stereotypical contraction pattern
same,contraction pattern (intracellular calcium transients),[6],stereotypical contraction pattern
"PDGF-BB: platelet-derived growth factor ligand predominantly secreted by ECs; PDGF pathway activator (protein, UniProt P01127 82-190, looked up, homodimer) Platelet-derived growth …: SLGSLTIAEPAMIAECKTRTEVFEISRRLIDRTNANFLVWPPCVEVQRCSGCCNNRNVQCRPTQVQLRPVQVRKIEIVRKKPIFKKATVTLEDHLACKCETVAAARPVT",generation of iPSC-CPs (PDGFRβ+/CD146+/NG2+/CD13+),[7],successfully generated pure iPSC-CPs
